In US10202658B2, “Methods for determining hypersusceptibility of HIV-1 to non-nucleoside reverse transcriptase inhibitors” (Monogram Biosciences, Inc., priority 2005, dated 2019):

System: HIV-1 clinical isolates grouped by RT mutations
Assay: Pairwise comparison of NNRTI fold change between groups of clinical isolates (Student's T-test, Bonferroni's Multiple Comparison Test)
Assay type: cell-based
Description: This example provides methods and compositions for identifying mutations that correlate with hypersusceptibility to a NNRTI. Resistance test vectors were constructed and used as described in Example 1. Resistance test vectors derived from patient samples or clones derived from the resistance test vector pools were tested in a resistance assay to determine accurately and quantitatively the relative EFV, DLV, or NVP resistance or susceptibility compared to the median observed resistance or susceptibility.
To identify mutations associated with NNRTI hypersusceptibility, the following analysis was performed. […] The TAMs referenced in. Table 1 include M41L, D67N, K70R, L210W, T215FY, and K219X, while the NAMs referenced include K65R, T69X, L74IV, V75X, and M184IV. Isolates without NRTI, NNRTI or PI mutations served as a wild type (WT) reference group. Further comparison groups comprised isolates with three TAMS including T215Y (+/−H208Y, +/−V118I) or three TAMS including K70R. Scatter plots and statistical tests (See FIGS. 1-6) were generated using Prism 4.0 (GraphPad, San Diego, Calif.)
In addition, a pairwise comparison between two sets of data was conducted using Bonferroni's Multiple Comparison Test using the Prism 4.0 software. The results of the comparison are presented in Tables 2, 3, and 4, appended to the end of this document. Samples with K65R, K65R+M184V, or 2 TAMs in combination with T215Y had over 40% with EFV FC<0.4.

With `O=C1Nc2ccc(Cl)cc2[C@@](C#CC2CC2)(C(F)(F)F)O1` [EFV, efavirenz] the “Mean Diff. of fold change” value (1 NAM vs 2 NAMs) was 0.1722, the “Mean Diff. of fold change” value (1 NAM vs 3 NAMs) was 0.1256 and the “Mean Diff. of fold change” value (1 NAM vs K65R) was 0.1565. The “Mean Diff. of fold change” value (1 NAM vs K65R + M184V) was 0.2694, the “Mean Diff. of fold change” value (1 NAM vs K70R_3_TAMs) was −0.02778 and the “Mean Diff. of fold change” value (1 NAM vs M184V) was 0.001657. For the same compound, the “Mean Diff. of fold change” value (1 NAM vs T69) was −0.09534, the “Mean Diff. of fold change” value (1 NAM vs T215Y_3_TAMs) was 0.2651 and the “Mean Diff. of fold change” value (1 NAM vs T215Y_3_TAMs_118) was 0.3291. The “Mean Diff. of fold change” value (1 NAM vs T215Y_3_TAMs_208) was 0.3294, the “Mean Diff. of fold change” value (1 NAM vs T215Y_3_TAMs_no118) was 0.2225 and the “Mean Diff. of fold change” value (1 NAM vs T215Y_3_TAMs_no208) was 0.2549. The “Mean Diff. of fold change” value (2 NAMs vs 3 NAMs) was −0.04654, the “Mean Diff. of fold change” value (2 NAMs vs K65R) was −0.01562 and the “Mean Diff. of fold change” value (2 NAMs vs K65R + M184V) was 0.09723. The “Mean Diff. of fold change” value (2 NAMs vs K70R_3_TAMs) was −0.1999, the “Mean Diff. of fold change” value (2 NAMs vs M184V) was −0.1705 and the “Mean Diff. of fold change” value (2 NAMs vs T69) was −0.2675. The “Mean Diff. of fold change” value (2 NAMs vs T215Y_3_TAMs) was 0.09297, the “Mean Diff. of fold change” value (2 NAMs vs T215Y_3_TAMs_118) was 0.1569 and the “Mean Diff. of fold change” value (2 NAMs vs T215Y_3_TAMs_208) was 0.1573. The “Mean Diff. of fold change” value (2 NAMs vs T215Y_3_TAMs_no118) was 0.05035, the “Mean Diff. of fold change” value (2 NAMs vs T215Y_3_TAMs_no208) was 0.08272 and the “Mean Diff. of fold change” value (3 NAMs vs K65R) was 0.03092. For the same compound, the “Mean Diff. of fold change” value (3 NAMs vs K65R + M184V) was 0.1438, the “Mean Diff. of fold change” value (3 NAMs vs K70R_3_TAMs) was −0.1534 and the “Mean Diff. of fold change” value (3 NAMs vs M184V) was −0.124. The “Mean Diff. of fold change” value (3 NAMs vs T69) was −0.221, the “Mean Diff. of fold change” value (3 NAMs vs T215Y_3_TAMs) was 0.1395 and the “Mean Diff. of fold change” value (3 NAMs vs T215Y_3_TAMs_118) was 0.2035. For the same compound, the “Mean Diff. of fold change” value (3 NAMs vs T215Y_3_TAMs_208) was 0.2038, the “Mean Diff. of fold change” value (3 NAMs vs T215Y_3_TAMs_no118) was 0.09689 and the “Mean Diff. of fold change” value (3 NAMs vs T215Y_3_TAMs_no208) was 0.1293. For the same compound, the “Mean Diff. of fold change” value (K65R + M184V vs K70R_3_TAMs) was −0.2972, the “Mean Diff. of fold change” value (K65R + M184V vs T215Y_3_TAMs) was −0.004258 and the “Mean Diff. of fold change” value (K65R + M184V vs T215Y_3_TAMs_118) was 0.05968. For the same compound, the “Mean Diff. of fold change” value (K65R + M184V vs T215Y_3_TAMs_208) was 0.06005, the “Mean Diff. of fold change” value (K65R + M184V vs T215Y_3_TAMs_no118) was −0.04688 and the “Mean Diff. of fold change” value (K65R + M184V vs T215Y_3_TAMs_no208) was −0.01451. For the same compound, the “Mean Diff. of fold change” value (K65R vs K65R + M184V) was 0.1129, the “Mean Diff. of fold change” value (K65R vs K70R_3_TAMs) was −0.1843 and the “Mean Diff. of fold change” value (K65R vs M184V) was −0.1549. For the same compound, the “Mean Diff. of fold change” value (K65R vs T69) was −0.2519, the “Mean Diff. of fold change” value (K65R vs T215Y_3_TAMs) was 0.1086 and the “Mean Diff. of fold change” value (K65R vs T215Y_3_TAMs_118) was 0.1725. The “Mean Diff. of fold change” value (K65R vs T215Y_3_TAMs_208) was 0.1729, the “Mean Diff. of fold change” value (K65R vs T215Y_3_TAMs_no118) was 0.06597 and the “Mean Diff. of fold change” value (K65R vs T215Y_3_TAMs_no208) was 0.09835. For the same compound, the “Mean Diff. of fold change” value (K70R_3_TAMs vs T215Y_3_TAMs_118) was 0.3569, the “Mean Diff. of fold change” value (K70R_3_TAMs vs T215Y_3_TAMs_no118) was 0.2503 and the “Mean Diff. of fold change” value (M184V vs K65R + M184V) was 0.2677. For the same compound, the “Mean Diff. of fold change” value (M184V vs K70R_3_TAMs) was −0.02944, the “Mean Diff. of fold change” value (M184V vs T69) was −0.09699 and the “Mean Diff. of fold change” value (M184V vs T215Y_3_TAMs) was 0.2635. For the same compound, the “Mean Diff. of fold change” value (M184V vs T215Y_3_TAMs_118) was 0.3274, the “Mean Diff. of fold change” value (M184V vs T215Y_3_TAMs_208) was 0.3278 and the “Mean Diff. of fold change” value (M184V vs T215Y_3_TAMs_no118) was 0.2209. The “Mean Diff. of fold change” value (M184V vs T215Y_3_TAMs_no208) was 0.2532, the “Mean Diff. of fold change” value (T69 vs K65R + M184V) was 0.3647 and the “Mean Diff. of fold change” value (T69 vs K70R_3_TAMs) was 0.06756. For the same compound, the “Mean Diff. of fold change” value (T69 vs T215Y_3_TAMs) was 0.3605, the “Mean Diff. of fold change” value (T69 vs T215Y_3_TAMs_118) was 0.4244 and the “Mean Diff. of fold change” value (T69 vs T215Y_3_TAMs_208) was 0.4248. For the same compound, the “Mean Diff. of fold change” value (T69 vs T215Y_3_TAMs_no118) was 0.3179, the “Mean Diff. of fold change” value (T69 vs T215Y_3_TAMs_no208) was 0.3502 and the “Mean Diff. of fold change” value (T215Y_3_TAMs vs K70R_3_TAMs) was −0.2929. The “Mean Diff. of fold change” value (T215Y_3_TAMs vs T215Y_3_TAMs_118) was 0.06394, the “Mean Diff. of fold change” value (T215Y_3_TAMs vs T215Y_3_TAMs_208) was 0.06431 and the “Mean Diff. of fold change” value (T215Y_3_TAMs vs T215Y_3_TAMs_no118) was −0.04263. For the same compound, the “Mean Diff. of fold change” value (T215Y_3_TAMs vs T215Y_3_TAMs_no208) was −0.01025, the “Mean Diff. of fold change” value (T215Y_3_TAMs_208 vs K70R_3_TAMs) was −0.3572 and the “Mean Diff. of fold change” value (T215Y_3_TAMs_208 vs T215Y_3_TAMs_118) was −0.0003693. For the same compound, the “Mean Diff. of fold change” value (T215Y_3_TAMs_208 vs T215Y_3_TAMs_no118) was −0.1069, the “Mean Diff. of fold change” value (T215Y_3_TAMs_208 vs T215Y_3_TAMs_no208) was −0.07456 and the “Mean Diff. of fold change” value (T215Y_3_TAMs_no118 vs T215Y_3_TAMs_118) was 0.1066. The “Mean Diff. of fold change” value (T215Y_3_TAMs_no208 vs K70R_3_TAMs) was −0.2827, the “Mean Diff. of fold change” value (T215Y_3_TAMs_no208 vs T215Y_3_TAMs_118) was 0.07419 and the “Mean Diff. of fold change” value (T215Y_3_TAMs_no208 vs T215Y_3_TAMs_no118) was −0.03237. For the same compound, the “mean fold change (FC) compared to the WT population” value (all groups containing NAMs or the combination of TAMs shown in Table 1, p<0.0001, Student's T-test) was “significantly lower”, the “Mean Diff. of fold change” value (wt vs 1 NAM) was 0.2652 and the “Mean Diff. of fold change” value (wt vs 2 NAMs) was 0.4373. The “Mean Diff. of fold change” value (wt vs 3 NAMs) was 0.3908, the “Mean Diff. of fold change” value (wt vs K65R) was 0.4217 and the “Mean Diff. of fold change” value (wt vs K65R + M184V) was 0.5346. The “Mean Diff. of fold change” value (wt vs K70R_3_TAMs) was 0.2374, the “Mean Diff. of fold change” value (wt vs M184V) was 0.2668 and the “Mean Diff. of fold change” value (wt vs T69) was 0.1698. The “Mean Diff. of fold change” value (wt vs T215Y_3_TAMs) was 0.5303, the “Mean Diff. of fold change” value (wt vs T215Y_3_TAMs_118) was 0.5942 and the “Mean Diff. of fold change” value (wt vs T215Y_3_TAMs_208) was 0.5946. For the same compound, the “Mean Diff. of fold change” value (wt vs T215Y_3_TAMs_no118) was 0.4877 and the “Mean Diff. of fold change” value (wt vs T215Y_3_TAMs_no208) was 0.5201.
